Data set [1] is described as follows: Anticancer activity against human 95-D cells xenografted in BALB/c mouse assessed as inhibition of tumor growth at 50 mg/kg, ig administered 2 to 3 times a week for 20 days measured post last dose. The format is functional. To be noted: po, 480 h, route intragastric.
Data set [2] concerns KB. The data set is described as follows: Cytotoxicity against human KB cells after 72 hrs by MTT assay. The format is functional, cell-based. Background: Tetrazolium dyes change colour on reduction, which living cells bring about.
A short description of data set [3]: Cytotoxicity against human KB/VCR cells after 72 hrs by MTT assay. The format is functional, cell-based.
The nature of data set [4]: Cytotoxicity against human 95-D cells after 72 hrs by MTT assay. The format is functional, cell-based.
The subject of data set [5] is Mus musculus. The data set is described as follows: Toxicity in BALB/c mouse xenografted with human 95-D cells assessed as body weight at 50 mg/kg, ig administered 2 to 3 times a week for 20 days measured post last dose (reference value: 21.6 +/- 0.6 gm). Type of data set: organism-based. Also on record: dose 50 mg/kg, route intragastric. To be noted: in vivo, po, 480 h.

Data set [6] deals with A549. The data set is described as follows: Cytotoxicity against human A549 cells after 72 hrs by MTT assay. The format is functional, cell-based. The conditions noted are these: A549, 72 h.
A short description of data set [7]: Anticancer activity against human 95-D cells xenografted in BALB/c mouse at 50 mg/kg, ig administered 2 to 3 times a week for 20 days measured post last dose relative to control. The format is functional. The conditions noted are these: route intragastric. On the technique in general: A xenograft is tissue or cells of one species grown in another, often human tumour cells in immunodeficient mice.

Our source for the inhibition in vivo, IC50 and Activity values is ChEMBL document CHEMBL1649404, “Synthesis and biological evaluation of new 4β-anilino-4'-O-demethyl-4-desoxypodophyllotoxin derivatives as potential antitumor agents” (Eur J Med Chem, 2011).

The inhibition in vivo is the change of the read-out against control, counted positive when it falls. By IC50 is commonly meant the point on the concentration scale where inhibition reaches its midpoint. A higher IC50 goes with weaker potency.

`COc1cc([C@@H]2c3cc4c(cc3[C@@H](Nc3ccc(NC(=O)c5ccc(OC(C)=O)cc5)cc3)[C@H]3COC(=O)[C@H]23)OCO4)cc(OC)c1O`: in data set [1], the inhibition in vivo at 50 mg/kg is 57.3%. Also, the IC50 in data set [2] is 1910 nM; in data set [3], 8480 nM; in data set [4], 420 nM; in data set [6], 2680 nM. The Activity in data set [5] amounted to 16.8 g; in data set [7], 46.3%.
